Measured values reported in ChEMBL document CHEMBL1157598, “Direct determination of the insulin-insulin receptor interface using transferred cross-saturation experiments” (J Med Chem, 2010).

Experiments:
[1] = biological target: Insulin receptor (Homo sapiens) (UniProt P06213); assay: Displacement of [125I]insulin from insulin receptor chimera fused with Fc-region of IgG at 300 uM by scintillation proximity assay
[2] = biological target: Insulin receptor (Homo sapiens) (UniProt P06213); assay: Displacement of [125I]insulin from insulin receptor chimera fused with Fc-region of IgG at 100 uM by scintillation proximity assay

Sequence of Insulin receptor (Homo sapiens) (P06213 28-758 limits assumed): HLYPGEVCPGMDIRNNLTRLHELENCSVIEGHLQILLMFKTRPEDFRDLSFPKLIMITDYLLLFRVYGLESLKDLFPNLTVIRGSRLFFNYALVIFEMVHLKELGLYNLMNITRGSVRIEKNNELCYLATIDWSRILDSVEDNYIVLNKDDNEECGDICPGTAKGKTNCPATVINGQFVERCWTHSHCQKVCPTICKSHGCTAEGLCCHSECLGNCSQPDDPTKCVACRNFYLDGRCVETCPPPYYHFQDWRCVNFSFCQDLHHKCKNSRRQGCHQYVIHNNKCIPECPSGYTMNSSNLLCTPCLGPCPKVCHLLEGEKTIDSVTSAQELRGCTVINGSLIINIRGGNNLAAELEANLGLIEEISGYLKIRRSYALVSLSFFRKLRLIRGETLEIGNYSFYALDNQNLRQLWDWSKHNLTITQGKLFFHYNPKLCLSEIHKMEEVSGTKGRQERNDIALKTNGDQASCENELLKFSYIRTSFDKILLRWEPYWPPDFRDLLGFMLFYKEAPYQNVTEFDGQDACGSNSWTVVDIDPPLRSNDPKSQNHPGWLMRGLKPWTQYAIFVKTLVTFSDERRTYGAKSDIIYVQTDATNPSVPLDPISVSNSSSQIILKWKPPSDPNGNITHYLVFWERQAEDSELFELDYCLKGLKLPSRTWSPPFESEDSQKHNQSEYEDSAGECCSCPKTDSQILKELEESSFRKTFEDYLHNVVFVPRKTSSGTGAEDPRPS
Sequence of Insulin receptor (Homo sapiens) (P06213 763-1382 limits assumed): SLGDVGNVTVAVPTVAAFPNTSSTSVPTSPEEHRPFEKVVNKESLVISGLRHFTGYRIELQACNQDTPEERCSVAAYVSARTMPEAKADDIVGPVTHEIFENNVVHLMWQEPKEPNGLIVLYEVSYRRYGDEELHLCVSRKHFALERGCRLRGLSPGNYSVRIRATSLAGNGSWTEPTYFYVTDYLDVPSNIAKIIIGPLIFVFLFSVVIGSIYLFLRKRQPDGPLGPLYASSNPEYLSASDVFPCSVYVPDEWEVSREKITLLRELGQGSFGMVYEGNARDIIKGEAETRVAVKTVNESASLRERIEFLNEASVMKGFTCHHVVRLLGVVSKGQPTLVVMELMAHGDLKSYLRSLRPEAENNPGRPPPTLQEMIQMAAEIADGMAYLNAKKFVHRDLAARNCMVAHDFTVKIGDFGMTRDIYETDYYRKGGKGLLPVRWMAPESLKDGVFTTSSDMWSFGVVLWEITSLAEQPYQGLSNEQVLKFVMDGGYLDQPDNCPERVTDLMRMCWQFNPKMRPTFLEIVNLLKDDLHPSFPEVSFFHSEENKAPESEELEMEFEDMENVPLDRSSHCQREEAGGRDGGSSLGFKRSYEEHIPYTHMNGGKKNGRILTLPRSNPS

Activity [1]: 49% | Activity [2]: 69%
SMILES: O=C(CSc1nnc(Nc2ccccc2F)s1)c1ccc(OC(F)F)cc1
